Counter-ions that a name gives are not always drawn. Blank lines part the entries; values can stand above or below the compound they belong to.
Biological target: T1, hSERT (5-HTT) in HEK293-hSERT cells (Homo sapiens, UniProt P31645)
T1 construct: expressed in transfected cells; host or cells: HEK293
Assay: 5-HTT reuptake activity assay (fluorescence neurotransmitter transporter uptake kit)
Assay type: cell-based
Conditions: serotonin reuptake inhibition

T1 sequence (P31645 whole entry): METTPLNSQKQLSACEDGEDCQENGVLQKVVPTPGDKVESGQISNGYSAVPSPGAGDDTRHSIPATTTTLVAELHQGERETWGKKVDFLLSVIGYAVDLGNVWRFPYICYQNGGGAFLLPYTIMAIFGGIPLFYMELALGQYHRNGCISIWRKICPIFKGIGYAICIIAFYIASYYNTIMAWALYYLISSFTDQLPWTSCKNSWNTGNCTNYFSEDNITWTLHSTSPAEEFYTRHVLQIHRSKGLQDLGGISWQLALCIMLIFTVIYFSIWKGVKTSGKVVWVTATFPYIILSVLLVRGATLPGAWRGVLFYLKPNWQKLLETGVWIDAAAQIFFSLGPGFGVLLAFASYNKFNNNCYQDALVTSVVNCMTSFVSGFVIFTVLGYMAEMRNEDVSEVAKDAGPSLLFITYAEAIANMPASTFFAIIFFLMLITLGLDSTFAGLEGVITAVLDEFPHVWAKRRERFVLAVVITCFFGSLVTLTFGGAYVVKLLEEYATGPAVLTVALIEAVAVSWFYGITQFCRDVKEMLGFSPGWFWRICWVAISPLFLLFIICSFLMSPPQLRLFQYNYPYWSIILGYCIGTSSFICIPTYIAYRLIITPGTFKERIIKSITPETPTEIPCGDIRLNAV

IC50: < 200 nM
SMILES: c1ccc2cc(N3CC4CCNCCC4C3)ccc2c1 (centres unmarked) [Example 6, 2-(naphthalen-2-yl)decahydropyrrolo[3,4-d]azepine maleate]

SMILES: c1ccc2c(C3CC4CNCC4C3)cccc2c1 (centres unmarked) [Example 8, 5-(naphthalen-1-yl)octahydrocyclopenta[c]pyrrole hydrochloride]
IC50: < 200 nM

SMILES: Clc1ccc(C2=CC3CNCC3C2)cc1Cl (centres unmarked) [Example 9, 5-(3,4-chlorophenyl)-1,2,3,3a,4,6a-hexahydrocyclopenta[c]pyrrole hydrochloride]
IC50: < 200 nM

SMILES: c1ccc2c(N3CC4CNCC4C3)csc2c1 (centres unmarked) [Example 23, 2-(Benzo[b]thiophen-3-yl)octahydropyrrolo[3,4-c]pyrrole maleate]
IC50: < 200 nM

IC50: < 50 nM
SMILES: c1cc(N2CC3CCNCCC3C2)c2sccc2c1 (centres unmarked) [Example 43, 2-(Benzo[b]thiophen-7-yl)decahydropyrrolo[3,4-d]azepine maleate]

SMILES: C1=C(c2cccc3ccsc23)CC2CNCC12 (centres unmarked) [Example 48, 5-(Benzothiophen-7-yl)-1,2,3,3a,4,6a-hexahydrocyclopenta[c]pyrrole hydrochloride]
IC50: < 50 nM

SMILES: C1=C(c2cc3ccccc3s2)CC2CNCC12 (centres unmarked) [Example 51, 5-(Benzothiophen-2-yl)-1,2,3,3a,4,6a-hexahydrocyclopenta[c]pyrrole hydrochloride]
IC50: < 50 nM

SMILES: C1=C(c2cc3ccccc3o2)CC2CNCC12 (centres unmarked) [Example 52, 5-(Benzofuran-2-yl)-1,2,3,3a,4,6a-hexahydrocyclopenta[c]pyrrole hydrochloride]
IC50: < 200 nM

SMILES: C1=C(c2ccc3ccccc3c2)CC2CNCC12 (centres unmarked) [Example 54, 5-(naphthalen-2-yl)-1,2,3,3a,4,6a-hexahydrocyclopenta[c]pyrrole hydrochloride]
IC50: < 50 nM

SMILES: C1=C(c2cccc3ccccc23)CC2CNCC12 (centres unmarked) [Example 56, 5-(naphthalen-1-yl)-1,2,3,3a,4,6a-hexahydrocyclopenta[c]pyrrole dihydrochloride]
IC50: < 50 nM

SMILES: CN1CC2C=C(c3ccc4ccccc4c3)CC2C1 (centres unmarked) [Example 57, 2-methyl-5-(naphthalen-2-yl)-1,2,3,3a,4,6a-hexahydrocyclopenta[c]pyrrole]
IC50: < 50 nM

SMILES: CN1CC2C=C(c3cc4ccccc4o3)CC2C1 (centres unmarked) [Example 59, 5-(Benzofuran-2-yl)-2-methyl-1,2,3,3a,4,6a-hexahydrocyclopenta[c]pyrrole hydrochloride]
IC50: < 50 nM

SMILES: CN1CC2C=C(c3cc4ccccc4s3)CC2C1 (centres unmarked) [Example 61, 5-(Benzothiophen-2-yl)-2-methyl-1,2,3,3a,4,6a-hexahydrocyclopenta[c]pyrrole hydrochloride]
IC50: < 50 nM

SMILES: CN1CC2CC(c3cc4ccccc4s3)CC2C1 (centres unmarked) [Example 62, 5-(benzothiophen-2-yl)-2-methyl-octahydrocyclopenta[c]pyrrole hydrochloride]
IC50: < 50 nM

SMILES: c1cc2cc(N3CCC4CNCC43)ccc2s1 (centres unmarked) [Example 64, 1-(Benzothiophen-5-yl)octahydropyrrolo[3,4-b]pyrrole maleate]
IC50: < 50 nM

SMILES: CN1CC2CCN(c3ccc4sccc4c3)C2C1 (centres unmarked) [Example 65, 1-(Benzothiophen-5-yl)-5-methyloctahydropyrrolo[3,4-b]pyrrole oxalate]
IC50: < 50 nM

SMILES: Cc1cccc(N2CC3CNCC3C2)c1C (centres unmarked) [Example 66, 2-(2,3-dimethylphenyl)octahydropyrrolo[3,4-c]pyrrole maleate]
IC50: < 50 nM

SMILES: Cc1cccc(N2CC3CN(C)CC3C2)c1C (centres unmarked) [Example 67, 2-(2,3-dimethylphenyl)-5-methyloctahydropyrrolo[3,4-c]pyrrole oxalate]
IC50: < 200 nM

SMILES: Fc1cc(N2CC3CNCC3C2)cc2sccc12 (centres unmarked) [Example 68, 2-(4-fluorobenzo[b]thiophen-6-yl)octahydropyrrolo[3,4-c]pyrrole dihydrochloride]
IC50: < 200 nM

IC50: < 50 nM
SMILES: CN1CC2CN(c3cc(F)cc4sccc34)CC2C1 (centres unmarked) [Example 70, 2-(6-fluorobenzothiophen-4-yl)-5-methyloctahydropyrrolo[3,4-c]pyrrole oxalate]

Source: patent publication US20220227773A1, “FUSED RING COMPOUND, PREPARATION METHOD THEREFOR AND USE THEREOF” (SHANGHAI INSTITUTE OF MATERIA MEDICA, CHINESE ACADEMY OF …, priority 2019, published 2022)
